Consider two compounds from paper PMC8760490, “Discovery of novel furanylbenzamide inhibitors that target oncogenic tyrosine phosphatase SHP2 in leukemia cells” (The Journal of Biological Chemistry, 2021).

For assay [1], the system named is phospho-ERK1/2 (p-ERK1/2) in MOLM-13 AML cells. Kind of assay: p-ERK1/2 immunoblot, MOLM-13. The format is cell-based. The following applies: 3 h; SBI-4668 3, 10, 30 μM; RMC-4550 1 μM. Here is the method:
(§1) Because SHP2 activity is critical for ERK activation, we used phospho-ERK1/2 (p-ERK1/2) as a more direct readout of SHP2 inhibitor efficacy. […] This p-ERK rebound in MOLM-13 cells treated with RMC-4550 is reminiscent of previously reported data from human hepatoma Hep3B cells treated with SHP099 ([34]). We also tested the effects of SBI-4668 or RMC-4550 on two patient-derived AML samples (Fig. 4F).
Cells cultured in RPMI medium were treated as indicated in the legends to the figures. Total protein extracts were prepared in modified radioimmunoprecipitation assay lysis buffer (25 mM Tris–HCl, pH 7.4, 10% glycerol, 0.2% Triton X-100, 150 mM NaCl, 2 mM Na3VO4, and 1 mM EDTA) containing a protease inhibitor cocktail (Roche Applied Science). Equal amounts of protein were separated on 4 to 12% (p-ERK1/2 blots) or 4 to 20% (SHP2 blots) Bis–Tris gels by SDS-PAGE and transferred to nitrocellulose (p-ERK1/2 blots) or 0.2 μm polyvinylidene fluoride (SHP2 blots) membranes. Membranes were blocked in 5% dry milk (Bio-Rad) in Tris-buffered saline–Tween-20 (TBS–T) (0.1% v/v) for 1 h at RT. Protein-bound membranes were incubated with indicated primary antibody overnight at 4 °C. After washing three times with TBS-T, membranes were incubated for 1 h with horseradish peroxidase–conjugated secondary antibody and then visualized by an ECL Prime detection system (GE Healthcare). Immunoblotting experiments were carried out at least three times, and representative images are shown. Densitometric quantitation of immunoblots was performed using Image Studio Lite Software (LI-COR). Changes of phosphorylated ERK1/2 to total ERK1/2 ratios are expressed as percentage of the vehicle-treated controls. The following antibodies were used: Phospho-Erk1/2 Ab (catalog no.: 9101S; Cell Signaling); total Erk1/2 Ab (catalog no.: 9102S; Cell Signaling); SHP2 Ab (catalog no.: A301-544A; lot no.: 1; Bethyl); and GAPDH (14C10) mAb (catalog no.: 2118S; lot no.: 14; Cell Signaling).

Assay [2] has as its system U-937 AML cells (G60R oncogenic mutation in SHP2). Kind of assay: Cell viability (CellTiter-Glo), U-937. The format is cell-based. Conditions: 3 days, 0.123 to 30 μM. The text has this: Oncogenic gain-of-function mutations in SHP2 drive leukemogenesis in a significant number of leukemia patients. However, because of their unique mechanism of action, the existing SHP2 allosteric inhibitors lack activity against the most common SHP2 oncogenic variants. Thus, we tested whether our inhibitors could inhibit the growth of leukemia cells expressing oncogenic SHP2 variants. […] Thus, we tested both SBI-4668 and RMC-4550 on U-937 AML cells, which harbor a G60R oncogenic mutation in SHP2. We treated cells with either SBI-4668 or RMC-4550 at various concentrations, ranging from 0.123 to 30 μM (Fig. 5A). […] We also assessed the effects of SBI-4668 and RMC-4550 on ERK1/2 activation in the SHP2 mutant U-937 cell line. […]
(§2) Viability of AML and esophageal carcinoma cells was assessed using the ATP-depletion assay CellTiter-Glo (Promega). Cells were harvested at 1 × 10^6/ml to 2 × 10^6 cells/ml with cell numbers determined by trypan blue using the Countess Cell counter (Thermo Scientific) and resuspended in culture media. […] Luminescence was read on a Tecan Spark Multimode Microplate Reader, and data were analyzed using GraphPad Prism software.

Assay [3] deals with mutant SHP2 (E76K) in live cells. On the set-up: method as in PMID 31953320, PMID 32744526. Conditions: cellular thermal shift assay; cited from earlier work.
Assay [4] relates to phospho-ERK1/2 (p-ERK1/2) in U-937 AML cells. The assay can be described thus: p-ERK1/2 immunoblot, U-937. In kind it is cell-based. Conditions: SBI-4668 1, 3, 10, 30 μM, RMC-4550 1 μM. The text has this:
Oncogenic gain-of-function mutations in SHP2 drive leukemogenesis in a significant number of leukemia patients. However, because of their unique mechanism of action, the existing SHP2 allosteric inhibitors lack activity against the most common SHP2 oncogenic variants. Thus, we tested whether our inhibitors could inhibit the growth of leukemia cells expressing oncogenic SHP2 variants. […] Thus, we tested both SBI-4668 and RMC-4550 on U-937 AML cells, which harbor a G60R oncogenic mutation in SHP2. We treated cells with either SBI-4668 or RMC-4550 at various concentrations, ranging from 0.123 to 30 μM (Fig. 5A). […] We also assessed the effects of SBI-4668 and RMC-4550 on ERK1/2 activation in the SHP2 mutant U-937 cell line. Similar to the immunoblot experiments described for MOLM-13 cells above, U-937 AML cells were treated with either vehicle control (DMSO), SBI-4668 (1, 3, 10, or 30 μM), or with RMC-4550 (1 μM) for 24 h and processed for p-ERK1/2 immunoblot analysis (Fig. 5B).
Cells cultured in RPMI medium were treated as indicated in the legends to the figures. […] Densitometric quantitation of immunoblots was performed using Image Studio Lite Software (LI-COR). Changes of phosphorylated ERK1/2 to total ERK1/2 ratios are expressed as percentage of the vehicle-treated controls. […]

Assay [5] has as its system patient-derived AML cells. Kind of assay: Viability of patient-derived AML cells. The following applies: 10 μM; 2, 4 or 6 days in culture. The format is cell-based, human.
Text: as §1
Patient-derived AML cells were obtained from Carol Burian and Dr James Mason (Scripps MD Anderson Center) under approved Institutional Review Board protocol 13-6180. […] Final peripheral blood mononuclear cells were resuspended in Bambanker serum-free freezing medium (Wako Pure Chemical Industries, Ltd) and stored frozen before cell viability was assessed as described later.
as §2

A further assay has as its system MOLM-13 AML cells. Kind of assay: Cell viability (CellTiter-Glo), MOLM-13. In kind it is cell-based. The following applies: 72 h, 30 μM to 58 nM, regular MOLM-13 expressing WT SHP2 (Fig. 4G); read-out: MOLM-13 cell viability IC50 (parallel to SHP2 KO). How it is done: (§3) Inhibition of SHP2 has been reported to inhibit the growth of cancer cells including Kasumi-1 acute myeloid leukemia (AML) and KYSE-520 esophageal cancer cells ([30]). […] Thus, we treated two TNBC cell lines, BT-549 and MDA-MB-468, with SBI-4668 or the SHP2 allosteric inhibitor SHP099 at various concentrations and determined cell viability after 72 h, compared with the vehicle control (Fig. 4C). […] Next, we performed an 11-day colony formation assay with TNBC cells treated with SBI-4668 or SHP099 at 5, 10, or 20 μM (Fig. 4D).
Finally, we evaluated the selectivity of our top two compounds, SBI-2130 and SBI-4668, on MOLM-13 AML cells in which SHP2 was depleted using CRISPR–Cas9 KO. High-efficiency Cas9-editing MOLM-13 cells were generated by transducing MOLM-13 cells with a Cas9 lentiviral construct. Stable clones were tested for editing efficiency by performing tracking of indels by decomposition analysis ([45]), and these MOLM-13-Cas9 cells were transduced with a lentiviral construct containing an AAVS1 single-guide RNA (sgRNA) and an mCherry reporter for bulk sorting of cells with successful AAVS1 editing. SHP2 KO was achieved by transducing MOLM-13-Cas9-mCherry cells with a lentivirus, containing SHP2 dual sgRNAs, resulting in ∼80% reduction of SHP2 protein levels (Fig. 4G). SBI-2130, SBI-4668, and the SHP2 allosteric inhibitor, SHP099, were tested in parallel on regular MOLM-13 cells (expressing WT SHP2) and MOLM-13-Cas9-mCherry cells with SHP2 KO. Cells were treated with inhibitors at various concentrations (ranging from 30 μM to 58 nM) or vehicle control (DMSO) for 72 h, before cell viability was assessed.
as §2, with “media. About 3000 cells (in 20 μl) were seeded in a 384-well format white and clear-bottom microplate (catalog no.: 781098; Greiner) spotted with test compound or vehicle control (DMSO) using an Echo 555 Liquid Handler.” for “media.”
For SHP2 KO, dual sgRNAs targeting SHP2 were cloned in the pLentiGuide puro vector (Addgene plasmid no. 52963 from Dr Feng Zhang) using a published protocol ([50]). […] SHP2 KO was evaluated by immunoblotting. […] For SHP2 KO, MOLM-13-Cas9-mCherry cells were seeded in nontreated 6-well plates (2 × 10^6 cells/well in 2.5 ml), with cell numbers determined by trypan blue using the Countess Cell Counter (Thermo Scientific). […]

Assay [6] relates to MDA-MB-468 TNBC cells. Kind of assay: 11-day colony formation assay, MDA-MB-468. In kind it is cell-based. The following applies: 5, 10 or 20 μM, 11 days. Here is the method:
as §3
(§4) MDA-MB-468 and […] triple-negative breast cancer cells were maintained in Dulbecco's modified Eagle's medium + 10% FBS supplemented with 1× penicillin–streptomycin/L-glutamine (Omega Scientific). About 1500 cells (in 300 μl) were seeded per well of a standard 24-well tissue culture plate (Falcon) and allowed to adhere for 24 h, before the addition of compound(s) as described. After a further 96 h, media were replaced with fresh media containing the same test compounds and concentrations. After 11 days, media were removed, and cells stained with 0.5% crystal violet (in 20% methanol; Sigma) for 20 min with agitation at 80 rpm. Stain was removed, and plates with stained cells were washed by being submerged in excess deionized water and allowed to air dry overnight before imaging.

Assay [7] deals with BT-549 TNBC cells. Kind of assay: TNBC cell viability (CellTiter-Glo), BT-549. The format is cell-based. The following applies: various concentrations. How it is done:
as §3
(§5) Triple-negative breast cancer cell viability was assessed using the ATP-depletion assay CellTiter-Glo. Briefly, 2500 cells in 25 μl media (RPMI + 10% FBS + 1× penicillin–streptomycin [Omega Scientific]) were seeded per well of a 384-well tissue culture–treated plate (Greiner). About 25 nl of 1000× test compound were added using a Labcyte Echo acoustic dispenser, and the cells were incubated for 5 days before addition of 10 μl of CellTiter-Glo reagent as described by the manufacturer. Luminescence was detected on a BioTek Synergy 2 microplate reader, and the values normalized to those of vehicle (DMSO)-treated controls before being plotted using GraphPad Prism.

The test system of assay [8] is MDA-MB-468 TNBC cells. Kind of assay: TNBC cell viability (CellTiter-Glo), MDA-MB-468. The format is cell-based. The following applies: various concentrations. Here is the method: as §3, §5
Assay [9] concerns BT-549 TNBC cells. Kind of assay: 11-day colony formation assay, BT-549. The format is cell-based. The following applies: 5, 10 or 20 μM, 11 days. Here is the method: as §3, §4

Regarding `Cc1nc(N2CCC3(CC2)CO[C@@H](C)[C@H]3N)c(CO)nc1-c1cccc(Cl)c1Cl` [RMC-4550, reference compound], the “p-ERK1/2 levels, MOLM-13, 3 h” value in [1] is on record as “highly effective in impeding ERK1/2 activation”. In addition, the half-inhibitory concentration (IC50) in assay [2] turned out to be 33 µM. In addition, in assay [3], the “cellular target engagement with mutant SHP2” value is “greatly decreased cellular target engagement”. Also, the “p-ERK1/2 levels, U-937, 24 h” value in [4] was “not detectable”. In addition, the “growth of two patient-derived AML samples” value in [5] is given as “only affected the growth of sample 2”.

On to `CC1(N)CCN(c2cnc(-c3cccc(Cl)c3Cl)c(N)n2)CC1` [SHP099, reference compound], for which, in the assay on MOLM-13 AML cells, the IC50 amounted to 9.4 µM. Further, the “colony formation, MDA-MB-468” value in the assay with MDA-MB-468 TNBC cells [6] was “very weak effect”. Moreover, the “effect on BT-549 cell viability” value with BT-549 TNBC cells [7] is on record as “very minor effect”. In addition, the “effect on MDA-MB-468 cell viability” value with MDA-MB-468 TNBC cells [8] is listed as “very minor effect”. Besides, in the assay with BT-549 TNBC cells [9], the “colony formation, BT-549” value is “very weak effect”.
